Biological target: USP1/UAF1 (Homo sapiens (Human), UniProt O94782)
Assay: Deubiquitination assay for USP1/UAF1 activity (ubiquitin-rhodamine 110)
Format: biochemical
Conditions: 0.05 nM USP1/UAF1, 150 nM ubiquitin-rhodamine
Experimental: Certain Compounds of the Disclosure were assessed for USP1/UAF1 activity in a Ubiquitin Rhodamine assay modified from those described previously.
Deubiquitinase activity was measured using ubiquitin-rhodamine 110 as a substrate. Cleavage of the amide bond between rhodamine and the c-terminal glycine of ubiquitin yields an increase in fluorescence signal. The assay was conducted in 20 ul total volume of assay buffer (50 mM Tris-HCl, pH 7.8, 0.5 mM EDTA, 0.01% Bovine Serum Albumin, 1 mM DTT, 0.01% Tween-20), and 0.05 nM USP1/UAF1 enzyme.
Compounds, dissolved in DMSO were tested in dose response format, beginning at 10 uM.
Compounds depicted below were added to enzyme/assay buffer mix and incubated 10 min.
Data for all assay formats was calculated as percent inhibition compared with control wells. […] IC50 values were calculated using the standard four parameter curve fitting algorithm in either Prism GraphPad (La Jolla, Calif.) software, or Collaborative Drug Discovery (Burlingame, Calif.) CDD Vault.

Sequence of USP1/UAF1 (O94782 whole entry): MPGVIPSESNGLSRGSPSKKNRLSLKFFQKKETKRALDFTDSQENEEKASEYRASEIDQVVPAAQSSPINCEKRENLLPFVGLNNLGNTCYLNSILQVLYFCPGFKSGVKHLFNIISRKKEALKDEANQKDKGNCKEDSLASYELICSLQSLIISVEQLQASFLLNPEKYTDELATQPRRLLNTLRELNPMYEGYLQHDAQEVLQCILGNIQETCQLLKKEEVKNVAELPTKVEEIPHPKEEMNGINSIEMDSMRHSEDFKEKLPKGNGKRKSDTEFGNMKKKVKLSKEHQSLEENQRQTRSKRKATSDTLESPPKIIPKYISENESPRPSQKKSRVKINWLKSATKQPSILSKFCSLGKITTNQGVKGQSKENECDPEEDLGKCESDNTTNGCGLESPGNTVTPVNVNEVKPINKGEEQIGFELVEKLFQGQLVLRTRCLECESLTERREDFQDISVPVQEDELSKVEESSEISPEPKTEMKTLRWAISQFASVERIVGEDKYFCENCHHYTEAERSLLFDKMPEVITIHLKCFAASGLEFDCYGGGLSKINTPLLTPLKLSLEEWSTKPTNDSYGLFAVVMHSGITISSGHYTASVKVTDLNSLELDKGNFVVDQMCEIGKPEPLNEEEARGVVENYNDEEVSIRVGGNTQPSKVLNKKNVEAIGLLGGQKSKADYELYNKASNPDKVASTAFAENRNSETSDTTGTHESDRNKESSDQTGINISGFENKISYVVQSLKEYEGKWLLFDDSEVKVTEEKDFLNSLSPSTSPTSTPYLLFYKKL
Sequence of USP1/UAF1 (Q8TAF3 whole entry partner): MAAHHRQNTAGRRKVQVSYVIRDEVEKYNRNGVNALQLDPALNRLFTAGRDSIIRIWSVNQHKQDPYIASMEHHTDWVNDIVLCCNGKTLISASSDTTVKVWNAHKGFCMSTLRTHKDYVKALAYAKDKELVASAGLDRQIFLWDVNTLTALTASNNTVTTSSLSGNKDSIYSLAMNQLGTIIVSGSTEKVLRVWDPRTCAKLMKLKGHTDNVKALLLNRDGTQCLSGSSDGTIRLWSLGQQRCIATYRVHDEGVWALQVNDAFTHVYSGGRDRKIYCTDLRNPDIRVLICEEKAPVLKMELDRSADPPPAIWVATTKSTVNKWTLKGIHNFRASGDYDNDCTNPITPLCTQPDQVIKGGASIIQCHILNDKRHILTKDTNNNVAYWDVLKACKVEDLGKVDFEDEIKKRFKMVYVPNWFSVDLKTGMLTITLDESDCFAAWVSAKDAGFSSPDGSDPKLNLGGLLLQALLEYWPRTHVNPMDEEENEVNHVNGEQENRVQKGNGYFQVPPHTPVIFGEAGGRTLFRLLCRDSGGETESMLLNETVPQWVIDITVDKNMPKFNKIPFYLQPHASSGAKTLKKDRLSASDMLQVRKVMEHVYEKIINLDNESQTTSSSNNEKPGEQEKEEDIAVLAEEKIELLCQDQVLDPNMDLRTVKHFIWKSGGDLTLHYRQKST

| IC50 (Table 3) [nM] | SMILES | other results |
| --- | --- | --- |
| 10 to 100 | CCn1cc(C(F)(F)F)nc1-c1ccc(Cn2ncc3cnc(-c4c(OC)ncnc4C4CC4)nc32)cn1 [drawing 767] | – |
| – | COc1ncnc(C2CC2)c1-c1ncc2ncn(Cc3ccc(-c4nc(C(F)(F)F)cn4C)cc3)c2n1 [drawing 831] | IC50 (Table 4): 100 to 200 nM |
| – | COc1ncnc(C2CC2)c1-c1ncc2nc(C(C)C)n(Cc3ccc(-n4nc(C(F)(F)F)cc4C)cc3)c2n1 [drawing 824] | IC50 (Table 4): 100 to 200 nM |
| > 200 | COc1ncnc(C2CC2)c1-c1ncc2cnn(Cc3ccc(-c4nc(C(F)(F)F)cn4CC(=O)N(C)C)cc3)c2n1 | – |
| – | CCOc1ncnc(C2CC2)c1-c1ncc2c(OCC)nn(Cc3ccc(-c4nc(C(F)(F)F)cn4CC)cc3)c2n1 [drawing 815] | IC50 (Table 4): 10 to 100 nM |
| 10 to 100 | CCn1cc(C(F)(F)F)nc1-c1ccc(Cn2ncc3cnc(-c4c(OC)ncnc4C4CC4)nc32)cc1 [drawing 738] | – |
| 10 to 100 | CCn1cc(C(F)(F)F)nc1-c1ccc(Cn2ncc3cnc(-c4c(OCCF)ncnc4C4CC4)nc32)cc1 [drawing 741] | – |
| 10 to 100 | CCn1cc(C(F)(F)F)nc1-c1ccc([C@H](C)n2ncc3cnc(-c4c(OC)ncnc4C4CCC4)nc32)cc1 (single isomer, unassigned) [drawing 748] | – |
| 10 to 100 | COc1ncnc(C2CC2)c1-c1ncc2cnn(Cc3ccc(-c4nc(C(F)(F)F)cn4C4COC4)cc3)c2n1 [drawing 770] | – |
| 10 to 100 | CCn1cc(C(F)(F)F)nc1-c1ccc(Cn2ncc3cnc(-c4c(C5CC5)cnn4CC)nc32)cc1 [drawing 771] | – |
| 10 to 100 | COc1ncnc(C2CCC2)c1-c1ncc2cnn(Cc3ccc(-c4nc(C(F)(F)F)cn4C)cc3)c2n1 [drawing 749] | – |
| 10 to 100 | COc1ncnc(C2CC2)c1-c1ncc2cnn(Cc3ccc(-n4nc(C(F)F)cc4C)cc3)c2n1 [drawing 762] | – |
| 10 to 100 | COc1ncnc(C2CC2)c1-c1ncc2cnn(Cc3ccc(-c4nc(C(F)(F)F)cn4C)cc3F)c2n1 [drawing 758] | – |
| – | CSc1cccc(C)c1-c1ncc2cnn(Cc3ccc(-c4nc(C(F)(F)F)cn4C)cc3)c2n1 [drawing 722] | IC50 (Table 2): 10 to 100 nM |
| 10 to 100 | COc1ncnc(C2CC2)c1-c1ncc2cnn(Cc3ccc(-c4nc(C(F)(F)F)cn4C4CC4)cc3)c2n1 [drawing 739] | – |
| – | COc1ncnc(C2CC2)c1-c1ncc2c(OC)nn(Cc3ccc(-c4cn(C(C)C)c(C(F)(F)F)n4)cc3)c2n1 [drawing 807] | IC50 (Table 4): 10 to 100 nM |
| – | COc1ncnc(C)c1-c1ncc2cnn(Cc3ccc(-c4nc(C(F)(F)F)cn4C)cc3)c2n1 [drawing 712] | IC50 (Table 2): 10 to 100 nM |
| < 10 | CCOc1ncnc(OCC)c1-c1ncc2cnn(Cc3ccc(-c4nc(C(F)(F)F)cn4CC)cc3)c2n1 [drawing 733] | – |
| – | Cc1cccc(S(C)(=O)=O)c1-c1ncc2cnn(Cc3ccc(-c4nc(C(F)(F)F)cn4C)cc3)c2n1 | IC50 (Table 2): 100 to 200 nM |
| 10 to 100 | Cn1cc(C(F)(F)F)nc1-c1ccc(Cn2ncc3cnc(-c4c(C#N)ncnc4C4CC4)nc32)cc1 | – |
| – | CCn1cc(C(F)(F)F)nc1-c1ccc([C@H](C)n2nc(OC)c3cnc(-c4c(OC)ncnc4C4CC4)nc32)cc1 [drawing 813] | IC50 (Table 4): 10 to 100 nM |
| – | COc1cnccc1-c1ncc2cnn(Cc3ccc(-c4nc(C(F)(F)F)cn4C)cc3)c2n1 | IC50 (Table 2): > 200 nM |
| 10 to 100 | COc1nc(C)nc(C2CC2)c1-c1ncc2cnn(Cc3ccc(-c4nc(C(F)(F)F)cn4C)cc3)c2n1 [drawing 760] | – |
| – | CC(C)c1ccccc1-c1ncc2cnn(C(C)c3ccc(-c4nc(C(F)(F)F)cn4C)cc3)c2n1 (stereo not shown) [drawing 726] | IC50 (Table 2): < 10 nM |
| – | COc1cccc(C)c1-c1ncc2cnn(Cc3ccc(-c4nc(C(F)(F)F)cn4C)cc3)c2n1 [drawing 717] | IC50 (Table 2): 10 to 100 nM |
| – | CC(C)c1ccccc1-c1ncc2cnn(Cc3ccc(-c4nc(C(F)(F)F)cn4C4CN(C)C4)cc3)c2n1 [drawing 725] | IC50 (Table 2): < 10 nM |
| > 200 | Cc1ncnc(N(C)C)c1-c1ncc2cnn(Cc3ccc(-n4nc(C(F)(F)F)cc4C)cc3)c2n1 | – |

| IC50 (Table 3) [nM] | SMILES | other results |
| --- | --- | --- |
| – | CC(C)c1ccccc1-c1ncc2ncn(Cc3ccc(-c4nc(C(F)(F)F)cn4C)cc3)c2n1 [drawing 832] | IC50 (Table 4): 10 to 100 nM |
| 10 to 100 | COc1ncnc(C2CC2)c1-c1ncc2cnn(Cc3ccc(-n4nc(C(F)(F)F)cc4OC)cc3)c2n1 [drawing 737] | – |
| 10 to 100 | COc1ncnc(C2CC2)c1-c1ncc2cnn(Cc3ccc(-c4nc(C(F)(F)F)c5n4CCNC5)cc3)c2n1 [drawing 773] | – |
| – | CC(C)c1ncccc1-c1ncc2cnn(Cc3ccc(-c4nc(C(F)(F)F)cn4C)cc3)c2n1 [drawing 721] | IC50 (Table 2): 10 to 100 nM |
| > 200 | COc1ncnc(C2CC2)c1-c1ncc2cnn(Cc3ccc(-c4nc(C(F)F)n(C)n4)cc3)c2n1 | – |
| > 200 | Cn1cc(C(F)(F)F)nc1-c1ccc(Cn2ncc3cnc(-c4c(C5CC5)ncnc4N4CCCC4)nc32)cc1 | – |
| > 200 | Cn1cc(C(F)(F)F)nc1-c1ccc(Cn2ncc3cnc(-c4c(OCc5ccccc5)ncnc4C4CC4)nc32)cc1 | – |
| – | COc1ncnc(C2CC2)c1-c1ncc2nc(C3CC3)n(Cc3ccc(-n4nc(C(F)(F)F)cc4C)cc3)c2n1 [drawing 822] | IC50 (Table 4): 10 to 100 nM |
| 10 to 100 | COc1ncnc(C2CC2)c1-c1ncc2cnn(Cc3ccc(-c4nc(C(F)(F)F)n(C)n4)cc3)c2n1 [drawing 778] | – |
| – | CCn1cc(C(F)(F)F)nc1-c1ccc(Cn2nc(OC)c3cnc(-c4c(OC)ncnc4C4CC4)nc32)cc1F [drawing 817] | IC50 (Table 4): 10 to 100 nM |
| – | COc1nccc(C#N)c1-c1ncc2cnn(Cc3ccc(-c4nc(C(F)(F)F)cn4C)cc3)c2n1 | IC50 (Table 2): 10 to 100 nM |
| – | COc1cccc(OC)c1-c1ncc2cnn(Cc3ccc(-c4nc(C(F)(F)F)cn4C)cc3)c2n1 [drawing 714] | IC50 (Table 2): 10 to 100 nM |
| – | COc1cccc(C2CC2)c1-c1ncc2cnn(Cc3ccc(-c4nc(C(F)(F)F)cn4C)cc3)c2n1 [drawing 724] | IC50 (Table 2): < 10 nM |
| – | CCn1cc(C(F)(F)F)nc1-c1ccc(Cn2nc(OC)c3cnc(-c4c(OC)ncnc4C4CC4)nc32)cc1 [drawing 820] | IC50 (Table 4): 10 to 100 nM |
| – | CC(C)c1ccccc1-c1ncc2ncn(Cc3ccc(-c4nc(C(F)(F)F)cn4C)cc3)c2n1 [drawing 719] | IC50 (Table 2): 10 to 100 nM |
| 10 to 100 | CCn1cc(C(F)(F)F)nc1-c1ccc([C@@H](C)n2ncc3cnc(-c4c(OC)ncnc4C4CCC4)nc32)cc1 (single isomer, unassigned) [drawing 742] | – |
| 100 to 200 | CCn1cc(C(F)(F)F)nc1-c1ccc(Cn2ncc3cnc(-c4c(OCc5ccccc5)ncnc4C4CC4)nc32)cc1 | – |
| > 200 | COCCOc1ncnc(C)c1-c1ncc2cnn(Cc3ccc(-n4nc(C(F)(F)F)cc4C)cc3)c2n1 [drawing 789] | – |
| – | CCn1c(-c2ccc(Cn3nc(OC)c4cnc(-c5c(OC)ncnc5C5CC5)nc43)cc2)nc(C(F)(F)F)c1Br [drawing 811] | IC50 (Table 4): 10 to 100 nM |
| – | CCn1cc(C(F)(F)F)nc1-c1ccc(Cn2nc(SCc3ccc(OC)cc3)c3cnc(-c4c(OC)ncnc4C4CC4)nc32)cc1 [drawing 801] | IC50 (Table 4): 10 to 100 nM |
| – | COc1ncnc(C2CC2)c1-c1ncc2c(OC)nn([C@@H](C)c3ccc(-c4nc(C(F)(F)F)cn4C(C)C)cc3)c2n1 [drawing 814] | IC50 (Table 4): 10 to 100 nM |
| < 10 | CCn1cc(C(F)(F)F)nc1-c1ccc(Cn2ncc3cnc(-c4c(OC(F)F)ncnc4C4CC4)nc32)cc1 [drawing 731] | – |
| – | CCn1cc(C(F)(F)F)nc1-c1ccc(Cn2nc(OC)c3cnc(-c4c(OC)ncnc4C4CC4)nc32)cc1 [drawing 819] | IC50 (Table 4): 10 to 100 nM |
| 10 to 100 | CSc1ncnc(C)c1-c1ncc2cnn(Cc3ccc(-n4nc(C(F)(F)F)cc4C)cc3)c2n1 [drawing 779] | – |
| – | CCc1nc2cnc(-c3c(OC)ncnc3C3CC3)nc2n1Cc1ccc(-n2nc(C(F)(F)F)cc2C)cc1 [drawing 825] | IC50 (Table 4): 10 to 100 nM |
| – | CCn1cc(C(F)(F)F)nc1-c1ccc(Cn2nc(N3CCC3)c3cnc(-c4c(OC)ncnc4C4CC4)nc32)cc1 [drawing 810] | IC50 (Table 4): 10 to 100 nM |
| > 200 | Cc1cc(C(F)(F)F)nn1-c1ccc(Cn2ncc3cnc(-c4cccnc4C#N)nc32)cc1 [drawing 797] | – |

| SMILES | IC50 (Table 3) [nM] | other results |
| --- | --- | --- |
| CNc1ncnc(C2CC2)c1-c1ncc2cnn(Cc3ccc(-c4nc(C(F)(F)F)cn4C)cc3)c2n1 | 10 to 100 | – |

— patent publication US11485736B2 (KSQ Therapeutics, Inc., priority 2018, dated 2022)
